{
  "source": "patent US20070065471A1",
  "about": "“Cosmetic/dermatological applications of PPAR receptor activators” (GALDERMA RESEARCH & DEVELOPMENT S.N.C., priority 2003, published 2007)",
  "key": {"sebaceous glands": {"system": "sebaceous glands", "assay": "Activity of PPAR activators on the size of sebaceous glands, daily topical application to rat back skin", "assay_type": "in vivo, female Fuzzy or OFA rats", "conditions": "once daily 4 weeks, control (acetone) = 1.00", "experimental": "The evaluation of the activity of the compounds according to the invention is performed by daily topical application (once a day, weekends included) to the skin of the back of female Fuzzy or OFA rats, for 4 weeks. 30 animals of 9/10 weeks old were divided into groups of 6 animals.\nThe evaluation method entails weighing the animals at the start and end of the test and in evaluating the size of the sebaceous glands on epidermal leaflets.\nThe animals are euthanized and the treated area (back) is then shaved and defatted. The 8 mm biopsy samples are then incubated in 1 M NaBr. After separating out the epidermis, photographs are taken of the sebaceous glands and the images obtained are then analyzed using the Tina software (quantification of the area of the sebaceous glands, arbitrary area unit [mm^2]), version 2.09 g sold by Raytest GmbH.\nThe statistical analysis is performed according to Student's t test (XL software sold by Microsoft)\nThe results are expressed as the mean of the inductions (“Mean RI”) with the value of the standard error of the mean (“SEM”).\nStudent's t test (“stat”): NS not significant • *p<0.05 • **p<0.01 • ***p<0.001"}, "PPAR gamma": {"target": "T1, PPAR gamma (Homo sapiens, UniProt P37231)", "T1 sequence (P37231 238-505 limits assumed)": "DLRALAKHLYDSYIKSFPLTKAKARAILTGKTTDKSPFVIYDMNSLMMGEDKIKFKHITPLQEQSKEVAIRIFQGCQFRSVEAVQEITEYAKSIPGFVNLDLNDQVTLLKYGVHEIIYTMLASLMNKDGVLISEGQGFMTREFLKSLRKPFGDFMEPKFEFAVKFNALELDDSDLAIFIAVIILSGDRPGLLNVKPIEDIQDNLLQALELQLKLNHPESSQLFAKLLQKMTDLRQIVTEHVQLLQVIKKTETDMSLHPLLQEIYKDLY", "assay": "PPAR transactivation test, PPAR gamma (HeLN reporter cells)", "assay_type": "cell-based", "conditions": "luciferase reporter, Gal-hPPAR gamma, n.a. means not active, read-out: PPAR gamma Kd app", "experimental": "(§1) Activation of the PPAR receptors with an agonist (activator) in HeLN cells leads to the expression of a reporter gene, luciferase, which, in the presence of a substrate, generates light. The modulation of the PPAR receptors is measured by quantifying the luminescence produced after incubating the cells in the presence of a reference agonist. The ligands displace the agonist from its site. The measurement of the activity is performed by quantifying the light produced. This measurement makes it possible to determine the modulatory activity of the compounds according to the invention by determining the constant that represents the affinity of the molecule for the PPAR receptor. This value can fluctuate according to the basal activity and the expression of the receptor: it is referred to as Kd apparent (KdApp in nM).\n(§2) Measurements are also taken for the total agonist controls with the same products.\n(§3) The HeLN cell lines used are stable transfectants comprising the plasmids ERE-βGlob-Luc-SV-Neo (reporter gene) and PPAR (α, δ, γ) Gal-hPPAR. These cells are inoculated in 96-well plates at a rate of 10,000 cells per well in 100 µl of DMEN medium without phenol red and supplemented with 10% defatted calf serum. The plates are then incubated at 37° C. and 7% CO2 for 16 hours.\n(§4) The various dilutions of the test products and of the reference ligand are added in a proportion of 5 µl per well. The plates are then incubated for 18 hours at 37° C., 7% CO2. The culture medium is removed by upturning and 100 μl of a 1:1 PBS/luciferin mixture are added to each well. After 5 minutes, the plates are read using a luminescence reader."}, "PPARs delta": {"target": "T2, PPARs delta (Homo sapiens, UniProt Q03181)", "T2 sequence (Q03181 171-441 limits assumed)": "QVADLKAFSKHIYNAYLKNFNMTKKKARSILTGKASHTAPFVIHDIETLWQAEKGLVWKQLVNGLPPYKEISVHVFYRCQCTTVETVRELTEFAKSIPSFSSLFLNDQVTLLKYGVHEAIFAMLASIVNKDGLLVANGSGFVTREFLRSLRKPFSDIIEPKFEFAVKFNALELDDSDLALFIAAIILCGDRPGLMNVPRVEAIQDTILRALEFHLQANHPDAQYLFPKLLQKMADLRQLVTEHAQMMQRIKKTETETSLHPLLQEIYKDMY", "assay": "PPAR transactivation test, PPAR delta (HeLN reporter cells)", "assay_type": "cell-based", "conditions": "luciferase reporter, Gal-hPPAR delta, n.a. means not active, read-out: PPARs delta Kd app", "experimental": "as §1, §2, §3, §4"}, "PPAR alpha": {"target": "T3, PPAR alpha (Homo sapiens, UniProt Q07869)", "T3 sequence (Q07869 200-468 limits assumed)": "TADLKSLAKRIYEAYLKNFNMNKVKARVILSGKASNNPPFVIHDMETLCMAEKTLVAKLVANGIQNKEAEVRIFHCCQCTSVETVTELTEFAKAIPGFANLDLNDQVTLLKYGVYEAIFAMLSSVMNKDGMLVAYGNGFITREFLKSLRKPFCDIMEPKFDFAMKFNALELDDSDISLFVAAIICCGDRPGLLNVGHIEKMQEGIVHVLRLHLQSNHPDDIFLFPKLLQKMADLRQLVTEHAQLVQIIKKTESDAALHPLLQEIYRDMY", "assay": "PPAR transactivation test, PPAR alpha (HeLN reporter cells)", "assay_type": "cell-based", "conditions": "luciferase reporter, Gal-hPPAR alpha, n.a. means not active, read-out: PPAR alpha Kd app", "experimental": "as §1, §2\nas §3, with “The plates are then incubated at 37° C. and 7% CO2 for 16 hours.” left out\nThe various dilutions of the test products and of the reference ligand are added in a proportion of 5 µl per well. […] After 5 minutes, the plates are read using a luminescence reader."}},
  "data": [
    {"smiles": "CN(CCOc1ccc(CC2SC(=O)NC2=O)cc1)c1ccccn1", "note": "(centres unmarked) [Example 1, 5-{4-[2-(methylpyrid-2-ylamino)ethoxy]-benzyl}thiazolidine-2,4-dione]", "values": [
      {"measurement": "Mean RI (sebaceous gland size)", "setting": "sebaceous glands; Study 1, 0.1% topical", "result": 0.73},
      {"measurement": "Mean RI (sebaceous gland size)", "setting": "sebaceous glands; Study 1, 0.3% topical", "result": 0.55},
      {"measurement": "Mean RI (sebaceous gland size)", "setting": "sebaceous glands; Study 1, 1% topical", "result": 0.51},
      {"measurement": "Mean RI (sebaceous gland size)", "setting": "sebaceous glands; Study 2, 0.1% topical", "result": 0.83}
    ]},
    {"smiles": "COCCOCOc1ccc2cc(C(=O)N(C)Cc3cccc(-c4ccc(CC5SC(=O)NC5=O)cc4)c3)ccc2c1", "note": "(centres unmarked) [Example 2, N-methyl-N-[4′-(2,4-dioxothiazolidin-5-yl-methyl)biphenyl-3-ylmethyl]-6-(2-methoxyethoxymethoxy)-naphthalene-2-carboxamide]", "values": [
      {"measurement": "Kd", "setting": "PPAR gamma", "result": 0.5, "unit": "nM"},
      {"measurement": "Mean RI (sebaceous gland size)", "setting": "sebaceous glands; Study 2, 0.003% topical", "result": 0.82},
      {"measurement": "Mean RI (sebaceous gland size)", "setting": "sebaceous glands; Study 2, 0.03% topical", "result": 0.75},
      {"measurement": "Mean RI (sebaceous gland size)", "setting": "sebaceous glands; Study 2, 0.3% topical", "result": 0.65},
      {"measurement": "Mean RI (sebaceous gland size)", "setting": "sebaceous glands; Study 3, 0.3% topical", "result": 0.66},
      {"measurement": "Mean RI (sebaceous gland size)", "setting": "sebaceous glands; Study 4, 0.3% topical", "result": 0.67}
    ]},
    {"smiles": "C[C@]12CCC(=O)CC1CCC1C2CC[C@@]2(C)C1CC[C@@H]2O", "note": "(stereo partly drawn) [Positive Control, 5a-androstan-17β-ol-3-one, reference compound]", "values": [
      {"measurement": "Mean RI (sebaceous gland size)", "setting": "sebaceous glands; Study 1, 0.3% topical", "result": 1.73}
    ]},
    {"smiles": "CCCCCCCNC(=O)N(C)c1cccc(-c2ccc(C[C@H](Nc3ccccc3C(=O)c3ccccc3)C(=O)O)cc2)c1", "note": "[Example 3, (S)-3-[3′-(3-heptyl-1-methylureido)biphenyl4-yl]-2-[2-(1-phenylmethanoyl)phenylamino]-propionic acid]", "values": [
      {"measurement": "Kd", "setting": "PPAR gamma", "result": 15, "unit": "nM"},
      {"measurement": "Kd", "setting": "PPARs delta", "result": 250, "unit": "nM"},
      {"measurement": "Mean RI (sebaceous gland size)", "setting": "sebaceous glands; Study 3, 0.01% topical", "result": 1.02},
      {"measurement": "Mean RI (sebaceous gland size)", "setting": "sebaceous glands; Study 3, 0.1% topical", "result": 0.84},
      {"measurement": "Mean RI (sebaceous gland size)", "setting": "sebaceous glands; Study 3, 1% topical", "result": 0.74}
    ]},
    {"smiles": "CN(C)c1ccc(NC(=O)N(C)c2cccc(-c3ccc(C[C@H](Nc4ccccc4C(=O)c4ccccc4)C(=O)O)cc3)c2)cc1", "note": "[Example 7, (S)-3-{3′-[3(4-dimethylaminophenyl)-1-methylureido]biphenyl-4-yl}-2-[2-(1-phenylmethanoyl)-phenylamino]propionic acid]", "values": [
      {"measurement": "Kd", "setting": "PPAR gamma", "result": 8, "unit": "nM"},
      {"measurement": "Kd", "setting": "PPARs delta", "result": 4000, "unit": "nM"}
    ]},
    {"smiles": "CCCc1nnc([C@H](Cc2ccc(OCCc3nc(-c4ccccc4)oc3C)cc2)Nc2ccccc2C(=O)c2ccccc2)o1", "note": "[Negative Control, 1-{2-[(S)-2-{4-[2-(5-methyl-2-phenyloxazol-4-yl)ethoxy]phenyl}-1-(5-propyl[1,3,4]oxadiazol-2-yl)ethylamino]phenyl}-1-phenylmethanone, reference compound]", "values": [
      {"measurement": "Mean RI (sebaceous gland size)", "setting": "sebaceous glands; Study 4, 0.01% topical", "result": 1.12},
      {"measurement": "Mean RI (sebaceous gland size)", "setting": "sebaceous glands; Study 4, 0.1% topical", "result": 1.08},
      {"measurement": "Mean RI (sebaceous gland size)", "setting": "sebaceous glands; Study 4, 1% topical", "result": 1.08}
    ]},
    {"smiles": "CCCOc1ccc2cc(C(=O)N(C)Cc3cccc(-c4ccc(CC5SC(=O)NC5=O)cc4)c3)ccc2c1", "note": "(centres unmarked) [Example 4, N-methyl-N-[4′-(2,4-dioxothiazolidin-5-yl-methyl)biphenyl-3-ylmethyl)-6-propoxynaphthalene-2-carboxamide]", "values": [
      {"measurement": "Kd", "setting": "PPAR gamma", "result": 1, "unit": "nM"}
    ]},
    {"smiles": "COCCOCOc1ccc2cc(C(=O)N(C)Cc3cccc(-c4ccc(Nc5ccccc5C(=O)O)cc4)c3)ccc2c1", "note": "[Example 6, 2-{3′-[({1-[6-(2-methoxyethoxymethoxy)-naphthalen-2-yl]methanoyl}methylamino)methyl]biphenyl-4-ylamino}benzoic acid]", "values": [
      {"measurement": "Kd", "setting": "PPAR gamma", "result": 30, "unit": "nM"}
    ]},
    {"smiles": "CCCCCCCC(=O)N(C)Cc1cccc(-c2ccc(C[C@H](OCC)C(=O)O)cc2)c1", "note": "[Example 5, (S)-2-ethoxy-3-{3′-[(methyloctanoylamino)methyl]biphenyl-4-yl}propionic acid]", "values": [
      {"measurement": "Kd", "setting": "PPAR gamma", "result": 2, "unit": "nM"},
      {"measurement": "Kd", "setting": "PPARs delta", "result": 4000, "unit": "nM"},
      {"measurement": "Kd", "setting": "PPAR alpha", "result": 500, "unit": "nM"}
    ]}
  ]
}
